Measured values from patent US9593084B2 (Parion Sciences, Inc., priority 2012, dated 2017).
Where two headings read alike, the source gives them in different places. Marks after values point to notes of the source that are not given here.

How the values were obtained:
[1] = molecular target: T1, epithelial sodium channel (Canis lupus familiaris, UniProt A0A8I3MKE6+A0A8I3Q679+Q95165); test: Inhibition of short-circuit current (ISC) in airway epithelial monolayers in Ussing chambers; assay type: cell-based, canine
T1 construct: endogenous in cells; host or cells: primary canine bronchial epithelial cells cultured at air-liquid interface
T1 sequence (A0A8I3Q679 1-649): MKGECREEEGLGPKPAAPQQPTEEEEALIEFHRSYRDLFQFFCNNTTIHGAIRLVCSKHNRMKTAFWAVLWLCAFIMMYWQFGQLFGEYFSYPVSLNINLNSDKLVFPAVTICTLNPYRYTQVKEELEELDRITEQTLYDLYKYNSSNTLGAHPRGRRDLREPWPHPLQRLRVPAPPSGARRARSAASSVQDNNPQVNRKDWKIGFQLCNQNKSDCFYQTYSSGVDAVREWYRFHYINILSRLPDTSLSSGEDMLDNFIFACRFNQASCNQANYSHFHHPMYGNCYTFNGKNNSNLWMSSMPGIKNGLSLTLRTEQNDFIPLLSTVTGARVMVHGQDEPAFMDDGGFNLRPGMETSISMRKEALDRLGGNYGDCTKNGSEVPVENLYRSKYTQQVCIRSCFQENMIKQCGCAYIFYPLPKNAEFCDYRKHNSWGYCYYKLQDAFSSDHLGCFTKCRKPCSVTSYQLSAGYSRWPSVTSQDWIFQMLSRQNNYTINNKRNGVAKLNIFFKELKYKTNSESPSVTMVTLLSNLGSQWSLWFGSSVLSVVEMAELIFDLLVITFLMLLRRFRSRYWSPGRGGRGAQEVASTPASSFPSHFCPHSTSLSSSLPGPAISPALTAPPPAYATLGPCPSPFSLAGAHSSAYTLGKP
T1 sequence (Q95165 1-641): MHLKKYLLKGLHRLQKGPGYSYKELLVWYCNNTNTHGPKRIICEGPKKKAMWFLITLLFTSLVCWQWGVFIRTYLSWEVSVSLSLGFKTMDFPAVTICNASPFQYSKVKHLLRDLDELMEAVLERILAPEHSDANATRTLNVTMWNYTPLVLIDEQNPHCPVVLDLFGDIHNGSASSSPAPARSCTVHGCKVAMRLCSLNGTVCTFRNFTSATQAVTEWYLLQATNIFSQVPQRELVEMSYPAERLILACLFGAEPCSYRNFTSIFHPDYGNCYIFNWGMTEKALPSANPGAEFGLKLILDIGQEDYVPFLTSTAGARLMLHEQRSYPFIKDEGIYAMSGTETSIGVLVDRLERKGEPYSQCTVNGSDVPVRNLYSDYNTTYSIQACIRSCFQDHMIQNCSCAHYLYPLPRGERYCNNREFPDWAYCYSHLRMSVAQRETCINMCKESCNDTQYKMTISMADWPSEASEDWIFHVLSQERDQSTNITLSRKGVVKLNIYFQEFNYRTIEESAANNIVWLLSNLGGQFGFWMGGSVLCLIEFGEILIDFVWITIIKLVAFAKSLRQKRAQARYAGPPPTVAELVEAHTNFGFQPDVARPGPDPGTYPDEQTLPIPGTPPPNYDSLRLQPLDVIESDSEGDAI
T1 sequence (A0A8I3MKE6 1-646): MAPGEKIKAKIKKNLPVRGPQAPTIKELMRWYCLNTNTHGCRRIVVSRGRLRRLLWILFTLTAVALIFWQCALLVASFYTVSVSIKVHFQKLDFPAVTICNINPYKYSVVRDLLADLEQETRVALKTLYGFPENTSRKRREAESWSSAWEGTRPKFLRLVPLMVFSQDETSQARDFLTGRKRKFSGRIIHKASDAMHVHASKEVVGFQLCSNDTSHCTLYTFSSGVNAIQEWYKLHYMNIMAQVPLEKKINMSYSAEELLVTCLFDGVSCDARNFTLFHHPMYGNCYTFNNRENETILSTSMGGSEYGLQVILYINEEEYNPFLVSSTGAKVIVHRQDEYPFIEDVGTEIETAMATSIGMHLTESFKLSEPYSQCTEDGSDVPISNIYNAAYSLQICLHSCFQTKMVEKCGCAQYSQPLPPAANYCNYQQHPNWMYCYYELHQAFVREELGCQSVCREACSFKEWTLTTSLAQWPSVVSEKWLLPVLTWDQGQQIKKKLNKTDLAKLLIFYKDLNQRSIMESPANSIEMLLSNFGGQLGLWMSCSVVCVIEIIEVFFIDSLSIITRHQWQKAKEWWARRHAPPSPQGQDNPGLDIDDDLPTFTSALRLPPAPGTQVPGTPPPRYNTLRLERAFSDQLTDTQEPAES
Description: One assay used to assess mechanism of action and/or potency of the compounds of the present invention involves the determination of lumenal drug inhibition of airway epithelial sodium currents measured under short circuit current (ISC) using airway epithelial monolayers mounted in Using chambers. Cells obtained from freshly excised human, dog, sheep or rodent airways are seeded onto porous 0.4 micron Snapwelff Inserts (CoStar), cultured at air-liquid interface (ALI) conditions in hormonally defined media, and assayed for sodium transport activity (ISC) while bathed in Krebs Bicarbonate Ringer (KBR) in Using chambers. All test drug additions are to the lumenal bath with half-log dose addition protocols (from 1×10^−11 M to 3×10^−5 M), and the cumulative change in ISC (inhibition) recorded. All drugs are prepared in dimethyl sulfoxide as stock solutions at a concentration of 1×10^−2 M and stored at −20° C. […] After the maximal concentration ([…]) is administered, the lumenal bath is exchanged three times with fresh drug-free KBR solution, and the resultant ISC measured after each wash for approximately 5 minutes in duration. Reversibility is defined as the percent return to the baseline value for sodium current after the third wash. All data from the voltage clamps are collected via a computer interface and analyzed off-line.
Dose-effect relationships for all compounds are considered and analyzed by the Prism 3.0 program.

[2] = test system: Sheep MCC; test: Mucociliary clearance (MCC) studies in sheep; assay type: in vivo; conditions: sheep
Description: The animal model that has been used most often to measure changes in MCC is the sheep model. The effect of compounds for enhancing mucociliary clearance (MCC) can be measured using an in vivo model described by Sabater et al., Journal of Applied Physiology, 1999, pp. 2191-2196, incorporated herein by reference.
In these studies, adult sheep were restrained and nasally intubated with an endotracheal tube. Aerosolized test articles were administered over 10-15 minutes to sheep. Radiolabeled ^99mTc-sulfur colloid (TSC, 3.1 mg/mL; containing approximately 20 mCi) was then administered at a specified time four or eight hours after test article. The radiolabeled aerosol was administered through the endotracheal tube for about 5 minutes. The sheep were then extubated, and total radioactive counts in the lung were measured every 5 minutes for a 1-hour observation period. The rate of radiolabel clearance from the lung is representative of the MCC rate in the animal. The advantage of this system is that it closely simulates the human lung environment. The model also allows for the collection of simultaneous PK/PD information through plasma and urine sampling over the test period. There are also several techniques to measure the drug concentrations on the airway surface during the MCC measurements. These include the collection of exhaled breath condensates or a filter paper method to obtain ASL via bronchoscopy.
The ovine model described above was used to evaluate the in vivo effects (efficacy/durability) of aerosol-delivered test agent on MCC. Treatments consisting of either 4 mL of test agent or test agent in combination with HS were tested. To determine if combining HS with test agent enhanced MCC, HS was administered immediately following test agent administration. Test solutions were aerosolized using a Raindrop nebulizer at a flowrate of eight liters per minute and connected to a dosimetry system consisting of a solenoid valve and a source of compressed air (20 psi). The deposited dose of drug in sheep lungs after an aerosol administration using the Raindrop nebulizer is estimated to be 8-15% of the dose. Using a Raindrop nebulizer, radiolabeled TSC was administered over approximately 3 minutes either 4 or 8 hours after drug treatment to evaluate efficacy/durability. Radioactive counts were measured in a central region in the right lung at 5 min intervals for one hour with a gamma camera. Three methods of analysis were utilized, 1) initial rate of clearance (slope) over the first 30 min fitted using linear regression 2) area under the curve for % clearance over time over one hour, and 3) the maximum clearance obtained in one hour.

[3] = canine bronchial epithelial cells, short-circuit current, read-out: Potency of Sodium Channel Blockade IC50
[4] = aerosol, 0.24 nmol/kg (3 μM), MCC at 8 h post-dose

SMILES | IC50 [1, 3] | other results
N=C(NCCCCc1ccc(C[C@H](N)C(=O)Nc2ccc(CCCNC[C@H](O)[C@@H](O)[C@H](O)[C@H](O)CO)cc2)c2ccccc12)NC(=O)c1nc(Cl)c(N)nc1N [Compound 38, 3,5-diamino-N—(N-(4-(4-((S)-2-amino-3-oxo-3-(4-(3-((2S,3R,4R,5R)-2,3,4,5,6-pentahydroxyhexylamino)propyl)phenylamino)propyl)naphthalen-1-yl)butyl)carbamimidoyl)-6-chloropyrazine-2-carboxamide] | 25.4 nM | –
CN(C)CCCc1ccc(NC(=O)[C@@H](N)Cc2ccc3cc(CCCCNC(=N)NC(=O)c4nc(Cl)c(N)nc4N)ccc3c2)cc1 [Compound 103, (S)-3,5-diamino-N—(N-(4-(6-(2-amino-3-(4-(3-(dimethylamino)propyl)phenylamino)-3-oxopropyl)naphthalen-2-yl)butyl)carbamimidoyl)-6-chloropyrazine-2-carboxamide] | 17.9 nM | –
N=C(NCCCCc1ccc(C[C@H](N)C(=O)Nc2ccc(CCCCCCNC[C@H](O)[C@@H](O)[C@H](O)[C@H](O)CO)cc2)c2ccccc12)NC(=O)c1nc(Cl)c(N)nc1N [Compound 53, 3,5-diamino-N—(N-(4-(4-((S)-2-amino-3-oxo-3-(4-(6-((2S,3R,4R,5R)-2,3,4,5,6-pentahydroxyhexylamino)hexyl)phenylamino)propyl)naphthalen-1-yl)butyl)carbamimidoyl)-6-chloropyrazine-2-carboxamide] | 15.5 nM | –
NC(=NC(=O)c1nc(Cl)c(N)nc1N)NCCCCc1ccc(C[C@H](N)C(=O)Nc2ccc(CCCNC[C@H](O)[C@@H](O)[C@H](O)[C@H](O)CO)cc2)c2c1CCCC2 [Compound 131] | – | IC50 [1]: 6 nM
N=C(NCCCCc1ccc(C[C@H](N)C(=O)Nc2ccc(CCCN(C[C@H](O)[C@@H](O)[C@H](O)[C@H](O)CO)C[C@H](O)[C@@H](O)[C@H](O)[C@H](O)CO)cc2)c2c1CCCC2)NC(=O)c1nc(Cl)c(N)nc1N [Compound 127, 3,5-diamino-N—(N-(4-(4-((S)-2-amino-3-(4-(3-(bis((2S,3R,4R,5R)-2,3,4,5,6-pentahydroxyhexyl)amino)propyl)phenylamino)-3-oxopropyl)-5,6,7,8-tetrahydronaphthalen-1-yl)butyl)carbamimidoyl)-6-chloropyrazine-2-carboxamide] | 8.6 nM | –
CN(C)CCCCCCc1ccc(NC(=O)[C@@H](N)Cc2ccc(CCCCNC(=N)NC(=O)c3nc(Cl)c(N)nc3N)c3ccccc23)cc1 [Compound 43, (S)-3,5-diamino-N—(N-(4-(4-(2-amino-3-(4-(6-(dimethylamino)hexyl)phenylamino)-3-oxopropyl)naphthalen-1-yl)butyl)carbamimidoyl)-6-chloropyrazine-2-carboxamide] | 50.1 nM | –
N=C(NCCCCc1ccc2cc(C[C@H](N)C(=O)Nc3ccc(CCCN(C[C@H](O)[C@@H](O)[C@H](O)[C@H](O)CO)C[C@H](O)[C@@H](O)[C@H](O)[C@H](O)CO)cc3)ccc2c1)NC(=O)c1nc(Cl)c(N)nc1N [Compound 94, 3,5-diamino-N—(N-(4-(6-((S)-2-amino-3-(4-(3-(bis((2S,3R,4R,5R)-2,3,4,5,6-pentahydroxyhexyl)amino)propyl)phenylamino)-3-oxopropyl)naphthalen-2-yl)butyl)carbamimidoyl)-6-chloropyrazine-2-carboxamide] | 21.2 nM | –
N=C(NCCCCc1ccc(C[C@H](N)C(=O)O)c2c1CCCC2)NC(=O)c1nc(Cl)c(N)nc1N [Compound 139, (S)-2-amino-3-(4-(4-(3-(3,5-diamino-6-chloropyrazine-2-carbonyl)guanidino)butyl)-5,6,7,8-tetrahydronaphthalen-1-yl)propanoic acid] | 73.7 nM | –
CN(C)CCCc1ccc(NC(=O)[C@@H](N)Cc2ccc(CCCCNC(=N)NC(=O)c3nc(Cl)c(N)nc3N)c3ccccc23)cc1 [Compound 23, (S)-3,5-diamino-N—(N-(4-(4-(2-amino-3-(4-(3-(dimethylamino)propyl)phenylamino)-3-oxopropyl)naphthalen-1-yl)butyl)carbamimidoyl)-6-chloropyrazine-2-carboxamide] | 20.7 nM | –
N=C(NCCCCc1ccc(C[C@@H](N)C(=O)Nc2ccc(CCCN(C[C@H](O)[C@@H](O)[C@H](O)[C@H](O)CO)C[C@H](O)[C@@H](O)[C@H](O)[C@H](O)CO)cc2)c2ccccc12)NC(=O)c1nc(Cl)c(N)nc1N [Compound 152, 3,5-diamino-N—(N-(4-(4-((R)-2-amino-3-(4-(3-(bis((2S,3R,4R,5R)-2,3,4,5,6-pentahydroxyhexyl)amino)propyl)phenylamino)-3-oxopropyl)naphthalen-1-yl)butyl)carbamimidoyl)-6-chloropyrazine-2-carboxamide] | – | duration of action on MCC vs. vehicle ([2]; 8 hours post dose): enhanced duration action of MCC vs. vehicle; AUC (% Cl-h) [2, 4]: 17.4* (4) % Cl-h; Initial Slope (8.0-8.5 h) [2, 4]: 37.5* (4)
